Earlier results as cited in patent US9408867B2, “Antifungal compositions for the treatment of skin and nails” (Veloce BioPharma, LLC, priority 2011, dated 2016).
Like-named read-outs stand apart in the source and are kept apart here.

Tests used:
[1] = human skin in vitro
[2] = 50% solution of DMSO in water

| ratio of penetration ([1]; dissolved in DMSO) | ratio of penetration ([1]; dissolved in alcohol) | ratio of penetration ([1]; dissolved in benzene) | ratio of penetration ([1]; dissolved in dimethylacetamide) | ratio of penetration ([1]; dissolved in dimethylformamide) | rate of penetration [2] | SMILES |
| --- | --- | --- | --- | --- | --- | --- |
| 60 | 3 | 1 | 40 | 7 | – | COC1=CC(=O)C[C@@H](C)[C@]12Oc1c(Cl)c(OC)cc(OC)c1C2=O [griseofulvin] |
| – | – | – | – | – | markedly enhanced | C[C@]12CCC(=O)C=C1CC[C@@H]1[C@@H]2[C@@H](O)C[C@@]2(C)[C@H]1CC[C@]2(O)C(=O)CO [hydrocortisone] |
